The values that follow come from US5698522A, “6-position modified decapeptide LHRH antagonists” (Abbott Laboratories, priority 1995, dated 1997).

Where a SMILES comes first, the peptide text is derived from it. Side-chain parts run from the residue outwards. [ ]: non-standard residue; d: D form. The star is where a group is joined. Shikimoyl = O=C(C1=C[C@@H](O)[C@@H](O)[C@H](O)C1)*; Quinoline4carbonyl = O=C(c1ccnc2ccccc12)*; dPhe(4-Cl) = N[C@H](Cc1ccc(Cl)cc1)C(=O)O; d2Nal = N[C@H](Cc1ccc2ccccc2c1)C(=O)O; Lys(iPr) = CC(C)NCCCC[C@H](N)C(=O)O; NMeY = CN[C@@H](Cc1ccc(O)cc1)C(=O)O; d3Pal = N[C@H](Cc1cccnc1)C(=O)O; Nicotinoyl = O=C(c1cccnc1)*; dOrn = NCCC[C@@H](N)C(=O)O; 2Furoyl = O=C(c1ccco1)*; X2 = O=C(c1ccoc1)*; Ava = NCCCCC(=O)O; azaGly = NNC(=O)O

This test has as its target T1, LHRH receptor (Rattus norvegicus, UniProt P30969).
T1 construct: endogenous in cells
T1 sequence (P30969 1-327): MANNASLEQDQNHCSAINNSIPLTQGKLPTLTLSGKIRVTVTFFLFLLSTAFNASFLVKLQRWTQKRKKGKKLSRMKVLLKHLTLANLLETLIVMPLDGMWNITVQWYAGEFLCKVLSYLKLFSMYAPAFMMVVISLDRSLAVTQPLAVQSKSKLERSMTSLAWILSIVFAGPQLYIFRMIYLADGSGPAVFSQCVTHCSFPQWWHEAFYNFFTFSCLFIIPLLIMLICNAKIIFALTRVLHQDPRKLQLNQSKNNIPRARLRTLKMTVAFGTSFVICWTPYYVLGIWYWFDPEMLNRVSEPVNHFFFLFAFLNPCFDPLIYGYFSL
Put plainly: in vitro LHRH antagonist potency (pA2) against the agonist leuprolide. The format is cell-based. As to conditions: negative logarithm of the antagonist concentration which shifts the response curve produced by the agonist leuprolide to two-fold higher concentration. In short, it runs like this: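 Functional antagonism against the agonist leuprolide. pA2 is the negative log of antagonist concentration that shifts the leuprolide response curve to twofold higher concentration.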
As for `CC(=O)N[C@H](Cc1ccc2ccccc2c1)C(=O)N[C@H](Cc1ccc(Cl)cc1)C(=O)N[C@H](Cc1cccnc1)C(=O)N[C@@H](CO)C(=O)N(C)[C@@H](Cc1ccc(O)cc1)C(=O)N[C@H](CCCCNC(=O)CNC(=O)CNC(=O)c1cccnc1)C(=O)N[C@@H](CC(C)C)C(=O)N[C@@H](CCCCNC(C)C)C(=O)N1CCC[C@H]1C(=O)N[C@H](C)C(N)=O` [Example 19c, NAc-D2Nal^1 -D4ClPhe^2 -D3Pal^3 -Ser^4 -NMeTyr^5 -DLys[N-epsilon-Gly-Gly-Nicotinyl]^6 -Leu^7 -Lys(N-epsilon-Isopropyl)^8 -Pro^9 -DAla^10 NH2] (Ac-[d2Nal][dPhe(4-Cl)][d3Pal]S[NMeY][dK]([Gly-Gly-Nicotinoyl])L[Lys(iPr)]P[dA]-NH2), the Kb was 3.31 pM.

On to `CC(=O)N[C@H](Cc1ccc2ccccc2c1)C(=O)N[C@H](Cc1ccc(Cl)cc1)C(=O)N[C@H](Cc1cccnc1)C(=O)N[C@@H](CO)C(=O)N(C)[C@@H](Cc1ccc(O)cc1)C(=O)N[C@H](CCCCNC(=O)CNC(=O)c1ccnc2ccccc12)C(=O)N[C@@H](CC(C)C)C(=O)N[C@@H](CCCNC(=N)N)C(=O)N1CCC[C@H]1C(=O)N[C@H](C)C(N)=O` [Example 51d, NAc-D2Nal^1 -D4ClPhe^2 -D3Pal^3 -Ser^4 -NMeTyr^6 -DLys(N-epsilon-Gly-4-Quinolinyl)^6 -Leu^7 -Arg^8 -Pro^9 -DAla^10 NH2] (Ac-[d2Nal][dPhe(4-Cl)][d3Pal]S[NMeY][dK]([Gly-Quinoline4carbonyl])LRP[dA]-NH2), for which the Kb is 14.1 pM.

In the case of `CC(=O)N[C@H](Cc1ccc2ccccc2c1)C(=O)N[C@H](Cc1ccc(Cl)cc1)C(=O)N[C@H](Cc1cccnc1)C(=O)N[C@@H](CO)C(=O)N(C)[C@@H](Cc1ccc(O)cc1)C(=O)N[C@H](CCCCNC(=O)[C@@H](Cc1cccnc1)NC(=O)C1=C[C@@H](O)[C@@H](O)[C@H](O)C1)C(=O)N[C@@H](CC(C)C)C(=O)N[C@@H](CCCNC(=N)N)C(=O)N1CCC[C@H]1C(=O)N[C@H](C)C(N)=O` [Example 38f, NAc-D2Nal^1 -D4ClPhe^2 -D3Pal^3 -Ser^4 -NMeTyr^5 -DLys(N-epsilon-D3Pal-Shikimyl)^6 -Leu^7 -Arg^8 -Pro^9 -DAla^10 NH2] (Ac-[d2Nal][dPhe(4-Cl)][d3Pal]S[NMeY][dK]([d3Pal-Shikimoyl])LRP[dA]-NH2), the Kb was 21.4 pM.

For `CC(=O)N[C@H](Cc1ccc2ccccc2c1)C(=O)N[C@H](Cc1ccc(Cl)cc1)C(=O)N[C@H](Cc1cccnc1)C(=O)N[C@@H](CO)C(=O)N(C)[C@@H](Cc1ccc(O)cc1)C(=O)N[C@H](CCCCNC(=O)CNC(=O)c1cccnc1)C(=O)N[C@@H](CC(C)C)C(=O)N[C@@H](CCCNC(=N)N)C(=O)N1CCC[C@H]1C(=O)N[C@H](C)C(N)=O` [Example 10, NAc-D2Nal^1 -D4ClPhe^2 -D3Pal^3 -Ser^4 -NMeTyr^5 -DLys(N-epsilon-Gly-Nicotinyl)^6 -Leu^7 -Arg^8 -Pro^9 -DAla^10 NH2] (Ac-[d2Nal][dPhe(4-Cl)][d3Pal]S[NMeY][dK]([Gly-Nicotinoyl])LRP[dA]-NH2), the Kb was 5.01 pM.

Regarding `CC(=O)N[C@H](Cc1ccc2ccccc2c1)C(=O)N[C@H](Cc1ccc(Cl)cc1)C(=O)N[C@H](Cc1cccnc1)C(=O)N[C@@H](CO)C(=O)N(C)[C@@H](Cc1ccc(O)cc1)C(=O)N[C@H](CCCCNC(=O)[C@@H](CO)NC(=O)c1ccoc1)C(=O)N[C@@H](CC(C)C)C(=O)N[C@@H](CCCNC(=N)N)C(=O)N1CCC[C@H]1C(=O)N[C@H](C)C(N)=O` [Example 65b, NAc-D2Nal^1 -D4ClPhe^2 -D3Pal^3 -Ser^4 -NMeTyr^5 -DLys(N-epsilon-DSer-3Furoyl)^6 -Leu^7 -Arg^8 -Pro^9 -DAla^10 NH2] (Ac-[d2Nal][dPhe(4-Cl)][d3Pal]S[NMeY][dK]([dS-X2])LRP[dA]-NH2), the Kb was 2.29 pM.

As to `CC(=O)N[C@H](Cc1ccc2ccccc2c1)C(=O)N[C@H](Cc1ccc(Cl)cc1)C(=O)N[C@H](Cc1cccnc1)C(=O)N[C@@H](CO)C(=O)N(C)[C@@H](Cc1ccc(O)cc1)C(=O)N[C@H](CCCNC(=O)NNC(=O)c1cccnc1)C(=O)N[C@@H](CC(C)C)C(=O)N[C@@H](CCCCNC(C)C)C(=O)N1CCC[C@H]1C(=O)N[C@H](C)C(N)=O` [Example 53a, NAc-D2Nal^1 -D4ClPhe^2 -D3Pal^3 -Ser^4 -NMeTyr^5 -DOrn(N-epsilon-Azagly-Nicotinyl)^6 -Leu^7 -Lys(N-epsilon-Isopropyl)^8 -Pro^9 -DAla^10 NH2] (Ac-[d2Nal][dPhe(4-Cl)][d3Pal]S[NMeY][dOrn]([azaGly-Nicotinoyl])L[Lys(iPr)]P[dA]-NH2), the Kb was 33.1 pM.

Consider `CC(=O)N[C@H](Cc1ccc2ccccc2c1)C(=O)N[C@H](Cc1ccc(Cl)cc1)C(=O)N[C@H](Cc1cccnc1)C(=O)N[C@@H](CO)C(=O)N(C)[C@@H](Cc1ccc(O)cc1)C(=O)N[C@H](CCCCNC(=O)CNC(=O)c1ccco1)C(=O)N[C@@H](CC(C)C)C(=O)N[C@@H](CCCNC(=N)N)C(=O)N1CCC[C@H]1C(=O)N[C@H](C)C(N)=O` [Example 18, NAc-D2Nal^1 -D4ClPhe^2 -D3Pal^3 -Ser^4 -NMeTyr^5 -DLys(N-epsilon-Gly-2Furoyl)^6 -Leu^7 -Arg^8 -Pro^9 -DAla^10 NH2] (Ac-[d2Nal][dPhe(4-Cl)][d3Pal]S[NMeY][dK]([Gly-2Furoyl])LRP[dA]-NH2), for which the Kb was 3.09 pM.

For `CC(=O)N[C@H](Cc1ccc2ccccc2c1)C(=O)N[C@H](Cc1ccc(Cl)cc1)C(=O)N[C@H](Cc1cccnc1)C(=O)N[C@@H](CO)C(=O)N(C)[C@@H](Cc1ccc(O)cc1)C(=O)N[C@H](CCCCNC(=O)NNC(=O)c1cccnc1)C(=O)N[C@@H](CC(C)C)C(=O)N[C@@H](CCCCNC(C)C)C(=O)N1CCC[C@H]1C(=O)N[C@H](C)C(N)=O` [Example 3, NAc-D2Nal^1 -D4ClPhe^2 -D3Pal^3 -Ser^4 -NMeTyr^5 -DLys(N-epsilon-Azagly-Nicotinyl)^6 -Leu^7 -Lys(N-epsilon-Isopropyl)^8 -Pro^9 -DAla^10 NH2] (Ac-[d2Nal][dPhe(4-Cl)][d3Pal]S[NMeY][dK]([azaGly-Nicotinoyl])L[Lys(iPr)]P[dA]-NH2), the Kb was 4.9 pM.

`CC(=O)N[C@H](Cc1ccc2ccccc2c1)C(=O)N[C@H](Cc1ccc(Cl)cc1)C(=O)N[C@H](Cc1cccnc1)C(=O)N[C@@H](CO)C(=O)N(C)[C@@H](Cc1ccc(O)cc1)C(=O)N[C@H](CCCCNC(=O)CCCCNC(=O)c1cccnc1)C(=O)N[C@@H](CC(C)C)C(=O)N[C@@H](CCCCNC(C)C)C(=O)N1CCC[C@H]1C(=O)N[C@H](C)C(N)=O` [Example 43, NAc-D2Nal^1 -D4ClPhe^2 -D3Pal^3 -Ser^4 -NMeTyr^5 -DLys(N-epsilon-5-Aminovaleryl-Nicotinyl)^6 -Leu^7 -Lys(N-epsilon-Isopropyl)^8 -Pro^9 -DAla^10 NH2] (Ac-[d2Nal][dPhe(4-Cl)][d3Pal]S[NMeY][dK]([Ava-Nicotinoyl])L[Lys(iPr)]P[dA]-NH2): the Kb was 8.51 pM.

Take `CC(=O)N[C@H](Cc1ccc2ccccc2c1)C(=O)N[C@H](Cc1ccc(Cl)cc1)C(=O)N[C@H](Cc1cccnc1)C(=O)N[C@@H](CO)C(=O)N(C)[C@@H](Cc1ccc(O)cc1)C(=O)N[C@H](CCCNC(=O)NNC(=O)c1ccco1)C(=O)N[C@@H](CC(C)C)C(=O)N[C@@H](CCCCNC(C)C)C(=O)N1CCC[C@H]1C(=O)N[C@H](C)C(N)=O` [Example 52, NAc-D2-Nal^1 -D4ClPhe^2 -D3Pal^3 -Ser^4 -NMeTyr^5 -DOrn(N-epsilon-Azagly-2-Furoyl)^6 -Leu^7 -Lys(N-epsilon-Isopropyl)^8 -Pro^9 -DAla^10 NH2] (Ac-[d2Nal][dPhe(4-Cl)][d3Pal]S[NMeY][dOrn]([azaGly-2Furoyl])L[Lys(iPr)]P[dA]-NH2): the Kb was 15.5 pM.
